The source made the active and inactive calls. No rule for the calls is given here.
Assay: blockers of VCAM1 upregulation by TNFa – imaging, TNFa stimulus, retest and dose response, confirmation (AID 1013);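 as to cell count: compound on cells 1 h before TNFa then 24 h more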
Conditions: TNFa-stimulated cells, VCAM1 expression imaging; at 2 µM; stronger effect = higher value
In the case of Cc1cc(C)cc(OCC(=O)Nc2nonc2NC(=O)COc2cc(C)cc(C)c2)c1, the inhibition is reported as 12.1% (inactive). For Cc1cccnc1Nc1nc(-c2ccccn2)cs1, the inhibition was -2.3% (inactive). With COc1cccc(OC)c1NC(=O)CN1CCC(NC(=O)c2cccc(F)c2)CC1 the inhibition was 6.5% (inactive). For CCCn1c(SCC(=O)NCc2ccco2)nnc1C(C)C, the inhibition was -9.8% (inactive). For CCOC(=O)C1=C(c2ccccc2)OC(N)=C(C#N)C1c1ccco1 (stereo not given), the inhibition was 13.3% (inactive). For COC(=O)c1sccc1NC(=O)c1ccc(Br)s1, the inhibition was 4% (inactive). In the case of CCCCC(=O)NC(=S)Nc1ccccc1C(=O)Nc1ccccc1, the inhibition is reported as -2.5% (inactive). In the case of O=S(=O)(Nc1ccc(-n2cccc2)cc1)c1ccccc1, the inhibition is reported as 11.9% (inactive). In the case of COc1ccc(Cn2nnnc2C(c2cccs2)N2CCSCC2)cc1 (stereo not given), the inhibition is reported as -1.3% (inactive). For COc1ccc(C)cc1S(=O)(=O)Nc1cccc(SC)c1, the inhibition was 3.5% (inactive). In the case of CC(C)Sc1nc2c(c(=O)n1-c1ccc(F)cc1)SCC2, the inhibition is reported as 7.4% (inactive). In the case of CCC(=O)Nc1cccc(NC(=O)c2cc3ccccc3o2)c1, the inhibition is reported as -3.1% (inactive). In the case of NC1=CC(=O)c2cccc3cccc1c23, the inhibition is reported as 6.1% (inactive). For O=C(c1ccc(Cl)cc1)N1CCCOC1, the inhibition was -7.1% (inactive). With O=C(Nc1ncc2c(n1)CC(c1ccco1)CC2=O)c1ccc(Cl)cc1 (stereo not given) the inhibition was -0.3% (inactive). In the case of Cc1ccc(C(=O)CSc2nnc(COc3ccc(C#N)cc3)n2-c2ccccc2)cc1, the inhibition is reported as -0.7% (inactive). With Cc1cc(C)n(C(=O)c2ccc(NC(=O)C3COc4ccccc4O3)cc2)n1 (stereo not given) the inhibition was 3.2% (inactive). With CCOC(=O)c1cnn(-c2nc(CC)nc3sc4c(c23)CCC4)c1N the inhibition was -10.3% (inactive). With CCCc1[nH]nc2c1C(c1cccnc1)C(C#N)=C(N)O2 (stereo not given) the inhibition was -7.9% (inactive). With C=CCNC(=O)c1nn2cccnc2c1Cl the inhibition was 3.3% (inactive). With Cc1cc(C(=O)NN)c2cc(Br)ccc2n1 the inhibition was -7.2% (inactive). For O=C(O)c1ccccc1Nc1ccccc1C(=O)O, the inhibition was 0.6% (inactive). In the case of CC(=O)c1cccc(NC(=O)c2cc(-c3ccc(F)cc3)on2)c1, the inhibition is reported as -10.4% (inactive). With N=c1nc(N)nc2n1NC(c1ccc(F)cc1)=CS2 the inhibition was -1.2% (inactive). With C=CCOc1c2ccc(C(=O)NCc3ccccc3OC)cc2nn1C the inhibition was 4.3% (inactive). With Cc1nc2sc(C(c3ccc(Cl)cc3)N3CC(C)OC(C)C3)c(O)n2n1 (stereo not given) the inhibition was -3% (inactive). For O=C(Cc1ccc(-n2cccc2)cc1)NC1CCCCCC1, the inhibition was 5.8% (inactive). With C/C(=N\Nc1nc2c(s1)CCCC2)c1ccccc1 the inhibition was 3.8% (inactive). For Nc1sccc1C(=O)c1ccc(Cl)cc1, the inhibition was -3.9% (inactive). For CCOC(=O)N1CCN(C(=O)c2ccc3c(c2)NC(=O)C(N2CCOCC2)S3)CC1 (stereo not given), the inhibition was 2.1% (inactive). With CCOC(=O)c1ccc(NC(=O)Cn2nnc(-c3ccccc3)n2)cc1 the inhibition was -10% (inactive). In the case of CC(C)C(=O)Nc1ccc(C(=O)NNC(=O)NC2CCCCC2)cc1, the inhibition is reported as -6.3% (inactive). In the case of O=C(O)C1CC=CCC1C(=O)N1CCCC1 (stereo not given), the inhibition is reported as -1.4% (inactive). With O=C(c1ccc2snnc2c1)N1CCSCC1 the inhibition was 8.5% (inactive). With O=C(NCc1ccco1)c1ccc(CS(=O)(=O)Cc2ccc(Cl)cc2)o1 the inhibition was -2.1% (inactive). In the case of O=C(NCc1cccs1)c1nc2c(nnn2Cc2ccccc2Cl)c(=O)[nH]1, the inhibition is reported as 13.8% (inactive). In the case of Cc1ccc(-c2nc(NC(=O)c3nn(C)cc3[N+](=O)[O-])sc2C)cc1, the inhibition is reported as 91.2% (inactive). In the case of CCCn1nc([N+](=O)[O-])c(C(C#N)c2nc3ccccc3s2)c(Cl)c1=O (stereo not given), the inhibition is reported as 18.2% (inactive). For C=C(C)c1cccc(C(C)(C)NC(=O)Nc2ncccn2)c1, the inhibition was -2.7% (inactive). With Cn1cc([N+](=O)[O-])c(C(=O)Nc2ccc3c(c2)OCCO3)n1 the inhibition was 10.7% (inactive). With O=C(CN1CCCCCC1=O)OCc1ncc(-c2ccccc2)o1 the inhibition was 9.7% (inactive). With CCOC(=O)Cc1csc(SCC(=O)/C(C#N)=C(\C)N)n1 the inhibition was 3.4% (inactive). For C=CCCCOc1ccc(C(=O)O)cc1, the inhibition was 8.3% (inactive). In the case of COc1ccc(CSc2nc3ccccc3[nH]2)cc1, the inhibition is reported as -2.5% (inactive). For O=C1CCSc2cccc3cccc(c23)N1, the inhibition was 2.8% (inactive). In the case of CCOC(=O)Cc1csc(NC(=O)COc2ccc(N(C)S(=O)(=O)c3ccc(C)cc3)cc2)n1, the inhibition is reported as -1.3% (inactive). With Cc1ccc(NC(=O)Cn2nnc(-c3ccccc3NC(=O)c3cccs3)n2)cc1 the inhibition was 9.2% (inactive). With CCOC(=O)c1ccc(NC(=O)CCNc2c(N3CCCC3)c(=O)c2=O)cc1 the inhibition was -10.3% (inactive). In the case of Cc1ccc(Nc2nc(CSc3nnnn3C)cs2)cc1, the inhibition is reported as -5.5% (inactive). For Cc1nnc(SCc2cn3ccsc3n2)n(N)c1=O, the inhibition was -9.6% (inactive). With CCc1cccc(CC)c1NC(=O)C1SC(=Nc2ccccc2C)C(c2nc3ccccc3s2)=C1N (stereo not given) the inhibition was 3.9% (inactive). With O=C(NCCO)C(c1ccccc1)c1ccccc1 the inhibition was -14.4% (inactive). For CCOc1ccccc1/C=N/Nc1ccccc1[N+](=O)[O-], the inhibition was 5.1% (inactive). For COC(=O)c1ccccc1NC(NC(=O)c1ccco1)C(=O)c1ccc(C)cc1 (stereo not given), the inhibition was -5.6% (inactive). With Cc1cccnc1N(C(=O)Nc1ccccc1)C1=NCC(C)(C)S1 the inhibition was -11.8% (inactive). In the case of COc1cc(C2Nc3ccc4ncccc4c3C3=C2C(=O)CCC3)cc(OC)c1O (stereo not given), the inhibition is reported as -11.9% (inactive). In the case of Nc1ccccc1NC(=O)c1ccccc1N, the inhibition is reported as -3.2% (inactive). In the case of CCOc1ccc(C(=O)C(c2ccccc2)N2CCOCC2)cc1 (stereo not given), the inhibition is reported as -17.7% (inactive). In the case of COc1ccc(CN2CCCCC2C(=O)Nc2ccc(OC)c(OCC(C)C)c2)cc1OC (stereo not given), the inhibition is reported as -5.8% (inactive). For Clc1ccc(C2=Nn3c(nnc3-c3cccnc3)SC2)s1, the inhibition was 13% (inactive). In the case of COc1ccc(-c2cc(C(=O)Nc3cc(C)n(Cc4ccc(Cl)cc4)n3)no2)cc1OC, the inhibition is reported as 11.7% (inactive). With COc1ccccc1-n1cnc2cc(NCc3cccs3)ccc21 the inhibition was -3.5% (inactive). For N#Cc1cc2c(nc1SCC(=O)N1CCCCC1)CCCC2, the inhibition was -5.8% (inactive). With Cc1ccc(OCc2ccoc2C(=O)O)cc1C the inhibition was 2.2% (inactive). In the case of CCOC(=O)c1cnc(-n2nc(C)cc2C)nc1NCc1ccccc1, the inhibition is reported as 7.9% (inactive). With Cc1cc(NC(=O)NC(=O)c2cccc(OC(F)(F)C(F)F)c2)n[nH]1 the inhibition was 3.8% (inactive). With CC(=O)Nc1ccc(NC2(C)C(=O)c3ccccc3C2=O)cc1 the inhibition was -3.5% (inactive). In the case of COC(=O)c1c(NC(=O)c2ccc(S(=O)(=O)N3CCOCC3)cc2)sc2c1CCN(C)C2, the inhibition is reported as -5.4% (inactive). With CC(C)(C)NC(=O)CSc1nsc(SCC(=O)NC(C)(C)C)c1C#N the inhibition was 1.8% (inactive). In the case of CC(C)c1nnc(NC(=O)CCC(=O)N2CCN(C3CCCCC3)CC2)s1, the inhibition is reported as 2.9% (inactive). With CC1(C)OC(=O)C(=NNc2ccc(O)cc2)C(=O)O1 the inhibition was -6.2% (inactive). With Cc1noc(C)c1S(=O)(=O)N1CCC2(CC1)OCCO2 the inhibition was 7.1% (inactive). With O=C(O)c1cc2nc3c(c(C(F)(F)F)n2n1)CCc1ccccc1-3 the inhibition was 4.4% (inactive). With CC(=O)c1cccc(Nc2nc(-c3cccc([N+](=O)[O-])c3)cs2)c1 the inhibition was 9.3% (inactive).

Same assay, conditions: TNFa-stimulated cells, VCAM1 expression imaging; cell count; at 10 µM; stronger effect = lower value
For Cc1ccc(-c2nc(NC(=O)c3nn(C)cc3[N+](=O)[O-])sc2C)cc1, the cell count was 113%.

— PubChem BioAssay AID1013 (Columbia University Molecular Screening Center, 2008)
